US10711004B2 (Genentech, Inc., priority 2018, dated 2020)
Like-named read-outs stand apart in the source and are kept apart here.

Target: human TRPA1 channel (Homo sapiens (Human), UniProt O75762)
Assay: hTRPA1 CHO Ca2+ FLIPR Tetra assay, block of cinnamaldehyde induced calcium influx
Type: cell-based
Details: CHO cells expressing TRPA1, Hill coefficient fixed to 1.5
Experimental: CHO cells expressing TRPA1 were plated into 384-well plates, incubated overnight at 37° C., and loaded with BD calcium indicator dye for 1 hr at 37° C. followed by 15 minutes at room temperature. The assay buffer was Hank's Balanced Salt Solution (HBSS) containing 20 mM HEPES (pH readjusted to 7.4) along with 0.02% BSA.
Following dye load and plate cool down, compounds were added to the cells using FLIPR Tetra. Plates were then incubated with compounds for 10 minutes or 90 minutes at room temperature prior to adding agonist. Following this incubation, about an EC50 concentration of cinnamaldehyde (75) was added to active the channels and block of cinnamaldehyde induced calcium influx was measured.
Fixing the Hill coefficient will generally reduce variability of the IC50 determination. The IC50 results were individually examined to make sure the MIN and MAX points were set correctly prior to validation of the results.

[1] = read-out: hTRPA1 IC50 (10 min), compounds incubated 10 minutes at room temperature before cinnamaldehyde agonist
[2] = read-out: hTRPA1 IC50 (90 min), compounds incubated 90 minutes at room temperature before cinnamaldehyde agonist

Sequence of human TRPA1 channel (O75762 whole entry): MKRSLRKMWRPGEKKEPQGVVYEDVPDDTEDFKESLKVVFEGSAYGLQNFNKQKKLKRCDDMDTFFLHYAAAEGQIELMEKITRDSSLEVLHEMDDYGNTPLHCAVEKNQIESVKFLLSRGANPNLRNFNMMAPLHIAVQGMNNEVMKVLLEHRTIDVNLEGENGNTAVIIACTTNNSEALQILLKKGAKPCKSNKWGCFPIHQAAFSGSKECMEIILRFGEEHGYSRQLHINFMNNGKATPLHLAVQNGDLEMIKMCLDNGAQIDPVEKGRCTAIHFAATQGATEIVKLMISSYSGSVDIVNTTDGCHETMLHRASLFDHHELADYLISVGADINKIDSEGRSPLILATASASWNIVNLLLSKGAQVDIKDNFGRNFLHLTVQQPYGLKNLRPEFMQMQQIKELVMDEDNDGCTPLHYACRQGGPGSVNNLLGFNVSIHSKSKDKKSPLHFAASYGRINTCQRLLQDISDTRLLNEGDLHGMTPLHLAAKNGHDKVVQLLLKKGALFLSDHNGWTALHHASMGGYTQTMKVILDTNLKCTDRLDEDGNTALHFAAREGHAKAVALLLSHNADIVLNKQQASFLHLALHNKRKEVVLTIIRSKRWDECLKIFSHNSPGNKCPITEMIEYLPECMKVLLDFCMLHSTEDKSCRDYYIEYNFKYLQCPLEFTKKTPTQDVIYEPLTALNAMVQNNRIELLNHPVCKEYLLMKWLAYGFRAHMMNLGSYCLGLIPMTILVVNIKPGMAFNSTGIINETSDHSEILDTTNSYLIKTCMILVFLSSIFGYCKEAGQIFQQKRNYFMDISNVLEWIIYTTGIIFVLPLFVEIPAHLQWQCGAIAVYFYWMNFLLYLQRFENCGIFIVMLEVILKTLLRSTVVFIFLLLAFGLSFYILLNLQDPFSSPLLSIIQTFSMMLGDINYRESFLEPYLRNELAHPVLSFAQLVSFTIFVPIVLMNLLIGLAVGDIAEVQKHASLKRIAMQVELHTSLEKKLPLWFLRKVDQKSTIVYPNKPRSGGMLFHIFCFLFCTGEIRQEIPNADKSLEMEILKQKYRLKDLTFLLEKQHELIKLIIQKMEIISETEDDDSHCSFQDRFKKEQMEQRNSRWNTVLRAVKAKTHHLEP

Structure (SMILES)	IC50 [1] [µM]	IC50 [2] [µM]
Cc1ccnc2ncn(Cc3nc([C@H]4C[C@H](c5ccc(Cl)cc5)C4)no3)c(=O)c12 [Example Compound 17, 3-((3-((trans)-3-(4-chlorophenyl)cyclobutyl)-1,2,4-oxadiazol-5-yl)methyl)-5-methylpyrido[2,3-d]pyrimidin-4(3H)-one]	0.0213	
Cn1cnc2ncn(Cc3nc([C@H]4[C@@H]5CN(c6cccnc6)C[C@@H]54)no3)c(=O)c21 [Example Compound 18, 7-methyl-1-[[3-[(1R,5S,6r)-3-(3-pyridyl)-3-azabicyclo[3.1.0]hexan-6-yl]-1,2,4-oxadiazol-5-yl]methyl]purin-6-one]	0.778	
Cn1cnc2c(C#N)nn(Cc3nc([C@H]4[C@@H]5CN(c6ccccc6)C[C@@H]54)no3)c2c1=O [Example Compound 22, 6-methyl-7-oxo-1-[[3-[(1R,5S,6s)-3-phenyl-3-azabicyclo[3.1.0]hexan-6-yl]-1,2,4-oxadiazol-5-yl]methyl]pyrazolo[4,3-d]pyrimidine-3-carbonitrile]	0.352	
Cn1cnc2ncn(Cc3nc([C@@H]4[C@@H]5CN(c6cccc(Cl)c6)C[C@@H]54)no3)c(=O)c21 [Example Compound 24, 7-methyl-1-[[3-[(1R,5S,6 r)-3-(3-chlorophenyl)-3-azabicyclo[3.1.0]hexan-6-yl]-1,2,4-oxadiazol-5-yl]methyl]purin-6-one]	0.00838	
Cn1cnc2ncn(Cc3nc([C@H]4[C@@H]5CN(c6ccc(Cl)cc6)C[C@@H]54)no3)c(=O)c21 [Example Compound 25, 7-methyl-1-[[3-[(1R,5S,6 r)-3-(4-chlorophenyl)-3-azabicyclo[3.1.0]hexan-6-yl]-1,2,4-oxadiazol-5-yl]methyl]purin-6-one]	0.0204	
Cc1ccnc2ncn(Cc3nc(C4Cc5ccccc5C4)no3)c(=O)c12 [Example Compound 27, 3-((3-(2,3-dihydro-1H-inden-2-yl)-1,2,4-oxadiazol-5-yl)methyl)-5-methylpyrido[2,3-d]pyrimidin-4(3H)-one]	0.531	
Cc1ccnc2ncn(Cc3nc([C@H]4[C@@H]5CN(c6ccc(Cl)cc6)C[C@@H]54)no3)c(=O)c12 [Example Compound 29, 5-methyl-3-[[3-[(1R,5S,6r)-3-(4-chlorophenyl)-3-azabicyclo[3.1.0]hexan-6-yl]-1,2,4-oxadiazol-5-yl]methyl]pyrido[2,3-d]pyrimidin-4-one]	0.29	
Cn1cnc2ncn(Cc3nc([C@H]4[C@@H]5CN(c6ccc(C=O)cc6)C[C@@H]54)no3)c(=O)c21 [Example Compound 32, 4-[(1R,5S,6r)-6-[5-[(7-methyl-6-oxo-purin-1-yl)methyl]-1,2,4-oxadiazol-3-yl]-3-azabicyclo[3.1.0]hexan-3-yl]benzaldehyde]	0.0549	
Cn1cnc2ncn(Cc3nc([C@H]4[C@@H]5CN(c6ccc7ccccc7c6)C[C@@H]54)no3)c(=O)c21 [Example Compound 33, 7-methyl-1-[[3-[(1R,5S,6r)-3-[2-naphthyl]-3-azabicyclo[3.1.0]hexan-6-yl]-1,2,4-oxadiazol-5-yl]methyl]purin-6-one]	0.00731	
COc1ccc(N2C[C@@H]3[C@H](C2)[C@H]3c2noc(Cn3cnc4ncn(C)c4c3=O)n2)cc1 [Example Compound 35, 7-methyl-1-[[3-[(1R,5S,6r)-3-[4-methoxyphenyl]-3-azabicyclo[3.1.0]hexan-6-yl]-1,2,4-oxadiazol-5-yl]methyl]purin-6-one]	0.048	
Cc1cncc2ncn(Cc3nc([C@H]4[C@@H]5CN(c6ccc(Cl)cc6)C[C@@H]54)no3)c(=O)c12 [Example Compound 36, 5-methyl-3-[[3-[(1R,5S,6r)-3-(4-chlorophenyl)-3-azabicyclo[3.1.0]hexan-6-yl]-1,2,4-oxadiazol-5-yl]methyl]pyrido[3,4-d]pyrimidin-4-one]	0.0714	
Cc1cncc2ncn(Cc3nc([C@H]4C[C@](F)(c5ccc(Cl)cc5)C4)no3)c(=O)c12 [Example Compound 37, 3-((3-((1s,3s)-3-(4-chlorophenyl)-3-fluorocyclobutyl)-1,2,4-oxadiazol-5-yl)methyl)-5-methylpyrido[3,4-d]pyrimidin-4(3H)-one]	0.0228	
Cc1ccnc2ncn(Cc3nc([C@H]4C[C@](F)(c5ccc(Cl)cc5)C4)no3)c(=O)c12 [Example Compound 38, 3-((3-((1s,3s)-3-(4-chlorophenyl)-3-fluorocyclobutyl)-1,2,4-oxadiazol-5-yl)methyl)-5-methylpyrido[2,3-d]pyrimidin-4(3H)-one]	0.0289	
Cc1cnn2ncn(Cc3nc([C@H]4[C@@H]5CN(c6ccccc6)C[C@@H]54)no3)c(=O)c12 [Example Compound 95, 5-methyl-3-((3-((1R,5S,6r)-3-phenyl-3-azabicyclo[3.1.0]hexan-6-yl)-1,2,4-oxadiazol-5-yl)methyl)pyrazolo[5,1f][1,2,4]triazin-4(3H)-one]	0.00811	0.0035
O=c1c2cccnc2cnn1Cc1nc([C@H]2[C@@H]3CN(c4cccc(F)c4)C[C@@H]32)no1 [Example Compound 96, 6-((3-((1R,5S,6r)-3-(3-fluorophenyl)-3-azabicyclo[3.1.0]hexan-6-yl)-1,2,4-oxadiazol-5-yl)methyl)pyrido[2,3-d]pyridazin-5(6H)-one]	0.00839	0.0051

Now from value to molecule:

IC50 [1] [µM]	IC50 [2] [µM]	Structure (SMILES)
0.0504		Cn1cnc2ncn(Cc3nc([C@H]4[C@@H]5CN(c6ccc(OC(F)F)cc6)C[C@@H]54)no3)c(=O)c21 [Example Compound 12, 7-methyl-1-[[3-[(1R,5S,6 r)-3-[4-(difluoromethoxy)phenyl]-3-azabicyclo[3.1.0]hexan-6-yl]-1,2,4-oxadiazol-5-yl]methyl]purin-6-one]
0.158		COc1cccc(N2C[C@@H]3[C@H](C2)[C@H]3c2noc(Cn3cnc4ncn(C)c4c3=O)n2)c1 [Example Compound 13, 7-methyl-1-[[3-[(1R,5S,6 r)-3-(3-methoxyphenyl)-3-azabicyclo[3.1.0]hexan-6-yl]-1,2,4-oxadiazol-5-yl]methyl]purin-6-one]
0.0527		Cn1cnc2ncn(Cc3nc([C@H]4[C@@H]5CN(c6cccc(C(F)(F)F)c6)C[C@@H]54)no3)c(=O)c21 [Example Compound 30, 7-methyl-1-[[3-[(1R,5S,6r)-3-[3-(trifluoromethyl)phenyl]-3-azabicyclo[3.1.0]hexan-6-yl]-1,2,4-oxadiazol-5-yl]methyl]purin-6-one]
0.0971		Cn1cnc2ncn(Cc3nc([C@H]4[C@@H]5CN(c6ccc(C(F)(F)F)cc6)C[C@@H]54)no3)c(=O)c21 [Example Compound 31, 7-methyl-1-[[3-[(1R,5S,6r)-3-[4-(trifluoromethyl)phenyl]-3-azabicyclo[3.1.0]hexan-6-yl]-1,2,4-oxadiazol-5-yl]methyl]purin-6-one]
0.464		Cn1cnc2ncn(Cc3nc([C@H]4[C@@H]5CN(c6ccc(Cl)nc6)C[C@@H]54)no3)c(=O)c21 [Example Compound 34, 7-methyl-1-[[3-[(1R,5S,6r)-3-[6-chloro-3-pyridyl]-3-azabicyclo[3.1.0]hexan-6-yl]-1,2,4-oxadiazol-5-yl]methyl]purin-6-one]
0.0206	0.0031	Cn1cnc2ncn(Cc3nc([C@H]4[C@@H]5CN(c6cc(F)cc(F)c6)C[C@@H]54)no3)c(=O)c21 [Example Compound 92, 1-((3-((1R,5S,6r)-3-(3,5-difluorophenyl)-3-azabicyclo[3.1.0]hexan-6-yl)-1,2,4-oxadiazol-5-yl)methyl)-7-methyl-1,7-dihydro-6H-purin-6-one]
0.0127	0.0039	Cn1cnc2ncn(Cc3nc([C@H]4[C@@H]5C=C(c6ccc(F)c(F)c6)C[C@@H]54)no3)c(=O)c21 [Example Compound 93, 1-((3-((1S,5S,6R)-3-(3,4-difluorophenyl)bicyclo[3.1.0]hex-2-en-6-yl)-1,2,4-oxadiazol-5-yl)methyl)-7-methyl-1,7-dihydro-6H-purin-6-one]
0.00935	0.0049	Cn1cnc2ncn(Cc3nc([C@@H]4[C@H]5C=C(c6ccc(F)c(F)c6)C[C@H]54)no3)c(=O)c21 [Example Compound 94, 1-((3-((1R,5R,6S)-3-(3,4-difluorophenyl)bicyclo[3.1.0]hex-2-en-6-yl)-1,2,4-oxadiazol-5-yl)methyl)-7-methyl-1,7-dihydro-6H-purin-6-one]
0.0481	0.019	Cn1cnc2ncn(Cc3nc([C@H]4[C@@H]5CN(c6ccccc6F)C[C@@H]54)no3)c(=O)c21 [Example Compound 97, 1-((3-((1R,5S,6r)-3-(2-fluorophenyl)-3-azabicyclo[3.1.0]hexan-6-yl)-1,2,4-oxadiazol-5-yl)methyl)-7-methyl-1,7-dihydro-6H-purin-6-one]
0.157	0.1	Cn1cnc2ncn(Cc3nc([C@H]4[C@@H]5CN(c6ccccc6C#N)C[C@@H]54)no3)c(=O)c21 [Example Compound 98, 2-((1R,5S,6r)-6-(5-((7-methyl-6-oxo-6,7-dihydro-1H-purin-1-yl)methyl)-1,2,4-oxadiazol-3-yl)-3-azabicyclo[3.1.0]hexan-3-yl)benzonitrile]
0.0151	0.0063	Cn1cnc2ncn(Cc3nc([C@H]4[C@@H]5CN(c6cc(F)ccc6F)C[C@@H]54)no3)c(=O)c21 [Example Compound 99, 1-((3-((1R,5S,6r)-3-(2,5-difluorophenyl)-3-azabicyclo[3.1.0]hexan-6-yl)-1,2,4-oxadiazol-5-yl)methyl)-7-methyl-1,7-dihydro-6H-purin-6-one]
